Data from patent US9302999B2, “Substituted triazoles as herbicides” (E. I. DU PONT DE NEMOURS AND COMPANY, priority 2012, dated 2016).

Experiments:
Assay type in all cases: in vivo
[1] = system: mustard, wild (wild mustard, Sinapis arvensis); assay: Test D pre-/postemergence: mustard, wild; conditions: Preemergence
Text: (§1) Seeds of plant species selected from bluegrass (annual bluegrass, Poa annua), blackgrass (Alopecurus myosuroides), canarygrass (Phalaris minor), chickweed (common chickweed, Stellaria media), galium (catchweed bedstraw, Galium aparine), bromegrass, downy (downy bromegrass, Bromus tectorum), field poppy (Papaver rhoeas), field violet (Viola arvensis), foxtail, green (green foxtail, Setaria viridis), deadnettle (henbit deadnettle, Lamium amplexicaule), ryegrass, Italian (Italian ryegrass, Lolium multiflorum), kochia (Kochia scoparia), lambsquarters (Chenopodium album), oilseed rape (Brassica napus), pigweed (Amaranthus retroflexus), Russian thistle (Salsola iberica), chamomile (scentless chamomile, Matricaria inodora), speedwell (bird's-eye speedwell, Veronica persica), barley, spring (spring barley, Hordeum vulgare), wheat, spring (spring wheat, Triticum aestivum), buckwheat, wild (wild buckwheat, Polygonum convolvulus), mustard, wild (wild mustard, Sinapis arvensis), oat, wild (wild oat, Avena fatua), radish, wild (wild radish, Raphanus raphanistrum), windgrass (Apera spica-venti), barley, winter (winter barley, Hordeum vulgare), and wheat, winter (winter wheat, Triticum aestivum) were planted into a silt loam soil and treated preemergence with test chemicals formulated in a non-phytotoxic solvent mixture which included a surfactant. At the same time, these same crop and weed species were planted in pots containing the planting medium comprising spaghnum peat moss, vermiculite, wetting agent and starter nutrients and treated with postemergence applications of the test chemicals formulated in the same manner. Plants ranged in height from 2 to 18 cm (1- to 4-leaf stage).
(§2) Treated plants and controls were maintained in a controlled growth environment for 14 to 21 days after which time all species were compared to controls and visually evaluated. Plant response ratings, summarized in Table D, are based on a scale of 0 to 100 where 0 is no effect and 100 is complete control. A dash (-) response means no test result.

[2] = system: canarygrass (Phalaris minor); assay: Test C postemergence: canarygrass
Summary of the method: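 Seedlings are raised in pots of peat-based medium to 2–18 cm (1- to 4-leaf stage). The formulated compound is then applied postemergence. Plants stay in the greenhouse for 13 to 15 days and are rated visually against controls, where 0 means no effect and 100 complete control.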

[3] = system: goosegrass (Eleusine indica); assay: Test C pre-/postemergence: goosegrass
Summary of the method: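 Visual injury scored 0–100 (100 = complete control) against untreated controls after 13–15 greenhouse days. Surfactant-containing solvent formulations applied either to soil after sowing (loam/sand) or over 1- to 4-leaf plants, 2–18 cm tall.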

[4] = system: wheat, winter (winter wheat, Triticum aestivum); assay: Test D pre-/postemergence: wheat, winter
Text: as §1, §2

[5] = system: chamomile (scentless chamomile, Matricaria inodora); assay: Test D pre-/postemergence: chamomile
Summary of the method: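 We sprayed chemicals in a surfactant-containing solvent onto silt loam at planting (preemergence) and onto 1- to 4-leaf seedlings (postemergence). Fourteen to 21 days later, each species was rated visually from 0 to 100 relative to controls.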

[6] = system: nightshade (eastern black nightshade, Solanum ptycanthum); assay: Test C pre-/postemergence: nightshade; conditions: Preemergence
Text: (§3) Seeds of plant species selected from blackgrass (Alopecurus myosuroides), bromegrass, downy (downy bromegrass, Bromus tectorum), foxtail, green (green foxtail, Setaria viridis), ryegrass, Italian (Italian ryegrass, Lolium multiflorum), winter wheat (Triticum aestivum), wild oat (Avena fatua), galium (catchweed bedstraw, Galium aparine), bermudagrass (Cynodon dactylon), surinam grass (Brachiaria decumbens), cocklebur (common cocklebur, Xanthium strumarium), corn (Zea mays), large crabgrass (Digitaria sanguinalis), woolly cupgrass (Eriochloa villosa), foxtail, giant (giant foxtail, Setaria faberii), goosegrass (Eleusine indica), johnsongrass (Sorghum halepense), kochia (Kochia scoparia), lambsquarters (Chenopodium album), morningglory (Ipomoea coccinea), nightshade (eastern black nightshade, Solanum ptycanthum), nutsedge, yellow (yellow nutsedge, Cyperus esculentus), pigweed (Amaranthus retroflexus), ragweed (common ragweed, Ambrosia elation), soybean (Glycine max), common (oilseed) sunflower (Helianthus annuus), Russian thistle (Salsola kali) and velvetleaf (Abutilon theophrasti) were planted into a blend of loam soil and sand and treated preemergence with test chemicals formulated in a non-phytotoxic solvent mixture which included a surfactant.
(§4) At the same time, plants selected from these crop and weed species and also barley (winter barley, Hordeum vulgare), canarygrass (Phalaris minor), chickweed (common chickweed, Stellaria media) windgrass (Apera spica-venti) and deadnettle (henbit deadnettle, Lamium amplexicaule) were planted in pots containing Redi-Earth® planting medium (Scotts Company, 14111 Scottslawn Road, Marysville, Ohio 43041) comprising spaghnum peat moss, vermiculite, wetting agent and starter nutrients and treated with postemergence applications of test chemicals formulated in the same manner. Plants ranged in height from 2 to 18 cm (1- to 4-leaf stage) for postemergence treatments.
(§5) Treated plants and controls were maintained in a greenhouse for 13 to 15 days, after which time all species were compared to controls and visually evaluated. Plant response ratings, summarized in Table C, are based on a scale of 0 to 100 where 0 is no effect and 100 is complete control. A dash (-) response means no test result.

[7] = system: sedge, umbrella (small-flower umbrella sedge, Cyperus difformis); assay: Test C flooded paddy test: sedge, umbrella; conditions: Cyperus difformis, scale 0 to 100 (0 no effect, 100 complete control), read-out: Plant response rating, Sedge, Umbrella
Summary of the method: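 Rating: visual, 0–100 (100 = complete control), versus untreated controls after 13 to 15 greenhouse days. Treatment went into paddy water held at 3 cm over the soil, on plants grown to two leaves.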

[8] = system: cocklebur (common cocklebur, Xanthium strumarium); assay: Test C pre-/postemergence: cocklebur
Text: as §3, §4, §5

[9] = 31 g ai/ha, scale 0 to 100 (0 no effect, 100 complete control)
[10] = 125 g ai/ha, scale 0 to 100, 0 no effect, 100 complete control
[11] = Postemergence, 31 g ai/ha, scale 0 to 100 (0 no effect, 100 complete control)
[12] = Postemergence, 62 g ai/ha, scale 0 to 100 (0 no effect, 100 complete control)
[13] = Postemergence, 125 g ai/ha, scale 0 to 100, 0 no effect, 100 complete control
[14] = Postemergence, 250 g ai/ha, scale 0 to 100
[15] = Preemergence, 31 g ai/ha, scale of 0 to 100, 0 is no effect, 100 is complete control
[16] = Preemergence, 125 g ai/ha, scale 0 to 100, 0 no effect, 100 complete control
[17] = Preemergence, 250 g ai/ha, scale 0 to 100, 0 no effect, 100 complete control
[18] = Postemergence, 250 g ai/ha, scale 0 to 100 (0 no effect, 100 complete control)
[19] = Postemergence, 16 g ai/ha, scale 0 to 100
[20] = Preemergence, 16 g ai/ha, scale 0 to 100 (0 no effect, 100 complete control)
[21] = Preemergence, 31 g ai/ha, scale 0 to 100 (0 no effect, 100 complete control)
[22] = Preemergence, 62 g ai/ha, scale 0 to 100
[23] = Preemergence, 125 g ai/ha, scale 0 to 100
[24] = Preemergence, 250 g ai/ha, scale 0 to 100

**Q.** For `Cc1nn(-c2ccc(F)cc2)nc1Oc1ccnc(C(F)(F)F)c1` [Compound 129, 4-[[2-(4-fluorophenyl)-5-methyl-2H-1,2,3-triazol-4-yl]oxy]-2-(trifluoromethyl)pyridine], which “Plant response rating, Mustard, Wild” value ([1]; 16 g ai/ha, scale 0 to 100 (0 no effect, 100 complete control)) is on record?
**A.** Its value is 0.

**Q.** And the “Plant response rating, Mustard, Wild” value [1, 9]?
**A.** The value was 5.

**Q.** What about the “Plant response rating, Mustard, Wild” value ([1]; 62 g ai/ha, scale 0 to 100) of the same compound?
**A.** Its value is 40.

**Q.** And the “Plant response rating, Mustard, Wild” value ([1]; 125 g ai/ha, scale 0 to 100)?
**A.** Its value is 80.

**Q.** And the “Plant response rating, Mustard, Wild” value ([1]; 250 g ai/ha, scale 0 to 100)?
**A.** The value was 100.

**Q.** What about the “Plant response rating, Canarygrass” value [2, 9] of the same compound?
**A.** Its value is 30.

**Q.** And the “Plant response rating, Canarygrass” value ([2]; 62 g ai/ha, scale 0 to 100 (0 no effect, 100 complete control))?
**A.** The value was 45.

**Q.** What about the “Plant response rating, Canarygrass” value [2, 10] of the same compound?
**A.** Its value is 50.

**Q.** And the “Plant response rating, Canarygrass” value ([2]; 250 g ai/ha, scale 0 to 100)?
**A.** The value was 85.

**Q.** What about the “Plant response rating, Goosegrass” value [3, 11] of the same compound?
**A.** Its value is 15.

**Q.** What about the “Plant response rating, Goosegrass” value [3, 12] of the same compound?
**A.** The value was 25.

**Q.** What about the “Plant response rating, Goosegrass” value [3, 13] of the same compound?
**A.** Its value is 30.

**Q.** What about the “Plant response rating, Goosegrass” value [3, 14] of the same compound?
**A.** Its value is 55.

**Q.** What about the “Plant response rating, Goosegrass” value [3, 15] of the same compound?
**A.** Its value is 98.

**Q.** What about the “Plant response rating, Goosegrass” value ([3]; Preemergence, 62 g ai/ha, scale of 0 to 100, 0 is no effect, 100 is complete control) of the same compound?
**A.** Its value is 98.

**Q.** What about the “Plant response rating, Goosegrass” value [3, 16] of the same compound?
**A.** The value was 98.

**Q.** What about the “Plant response rating, Goosegrass” value [3, 17] of the same compound?
**A.** Its value is 98.

**Q.** And the “Plant response rating: Wheat, Winter” value [4, 11]?
**A.** The value was 5.

**Q.** What about the “Plant response rating: Wheat, Winter” value [4, 12] of the same compound?
**A.** The value was 10.

**Q.** What about the “Plant response rating: Wheat, Winter” value [4, 13] of the same compound?
**A.** The value was 20.

**Q.** What about the “Plant response rating: Wheat, Winter” value [4, 18] of the same compound?
**A.** The value was 20.

**Q.** And the “Plant response rating, Wheat, Winter” value [4, 19]?
**A.** Its value is 5.

**Q.** What about the “Plant response rating, Wheat, Winter” value [4, 20] of the same compound?
**A.** The value was 0.

**Q.** What about the “Plant response rating, Wheat, Winter” value [4, 21] of the same compound?
**A.** Its value is 0.

**Q.** What about the “Plant response rating, Wheat, Winter” value [4, 22] of the same compound?
**A.** Its value is 0.

**Q.** What about the “Plant response rating, Wheat, Winter” value [4, 23] of the same compound?
**A.** The value was 5.

**Q.** What about the “Plant response rating, Wheat, Winter” value [4, 24] of the same compound?
**A.** Its value is 10.

**Q.** What about the “Plant response rating: Chamomile” value [5, 11] of the same compound?
**A.** The value was 30.

**Q.** And the “Plant response rating: Chamomile” value [5, 12]?
**A.** The value was 30.

**Q.** And the “Plant response rating: Chamomile” value [5, 13]?
**A.** Its value is 30.

**Q.** What about the “Plant response rating: Chamomile” value [5, 18] of the same compound?
**A.** The value was 35.

**Q.** What about the “Plant response rating, Chamomile” value [5, 19] of the same compound?
**A.** Its value is 20.

**Q.** What about the “Plant response rating, Chamomile” value [5, 20] of the same compound?
**A.** Its value is 0.

**Q.** And the “Plant response rating, Chamomile” value [5, 21]?
**A.** Its value is 30.

**Q.** And the “Plant response rating, Chamomile” value [5, 22]?
**A.** The value was 30.

**Q.** What about the “Plant response rating, Chamomile” value [5, 23] of the same compound?
**A.** Its value is 30.

**Q.** What about the “Plant response rating, Chamomile” value [5, 24] of the same compound?
**A.** The value was 100.

**Q.** And the “Plant response rating, Nightshade” value ([6]; 31 g ai/ha, scale of 0 to 100, 0 is no effect, 100 is complete control)?
**A.** The value was 85.

**Q.** And the “Plant response rating, Nightshade” value ([6]; 62 g ai/ha, scale of 0 to 100, 0 is no effect, 100 is complete control)?
**A.** Its value is 90.

**Q.** What about the “Plant response rating, Nightshade” value [6, 10] of the same compound?
**A.** Its value is 90.

**Q.** What about the “Plant response rating, Nightshade” value ([6]; 250 g ai/ha, scale 0 to 100, 0 no effect, 100 complete control) of the same compound?
**A.** The value was 95.

**Q.** And the pest or weed control at 125 g/ha ([7]; Flood (flooded paddy test), 125 g ai/ha, visual rating after 13 to 15 days)?
**A.** The pest or weed control at 125 g/ha was 85%.

**Q.** What about the pest or weed control at 250 g/ha ([7]; Flood (flooded paddy test), 250 g ai/ha, visual rating after 13 to 15 days) of the same compound?
**A.** The pest or weed control at 250 g/ha was 95%.

**Q.** What about the pest or weed control at 31 g/ha ([7]; Flood, 31 g ai/ha) of the same compound?
**A.** Its pest or weed control at 31 g/ha is 75%.

**Q.** And the pest or weed control at 62 g/ha ([7]; Flood, 62 g ai/ha)?
**A.** The pest or weed control at 62 g/ha was 75%.

**Q.** What about the “Plant response rating, Cocklebur” value [8, 11] of the same compound?
**A.** The value was 5.

**Q.** And the “Plant response rating, Cocklebur” value [8, 12]?
**A.** The value was 10.

**Q.** And the “Plant response rating, Cocklebur” value [8, 13]?
**A.** Its value is 15.

**Q.** And the “Plant response rating, Cocklebur” value [8, 14]?
**A.** Its value is 25.

**Q.** And the “Plant response rating, Cocklebur” value [8, 15]?
**A.** The value was 0.

**Q.** And the “Plant response rating, Cocklebur” value ([8]; Preemergence, 62 g ai/ha, scale 0 to 100, 0 no effect, 100 complete control)?
**A.** The value was 0.

**Q.** What about the “Plant response rating, Cocklebur” value [8, 16] of the same compound?
**A.** Its value is 0.

**Q.** And the “Plant response rating, Cocklebur” value [8, 17]?
**A.** Its value is 0.
